Reference: publication PMC6073854, “Role of Arginine 117 in Substrate Recognition by Human Cytochrome P450 2J2” (International Journal of Molecular Sciences, 2018)
Residue numbers refer to the chain shown, from its start. Where “and” joins values, the source holds several entries; their conditions need not be identical. Equal values may be shown once.

Tests used:
wild type CYP2J2 = tested on: wild type CYP2J2; parameters: method as in PMID 17705402; conditions: docked model, WT; values previously reported ref 50; cited from earlier work
CYP2J2-R117E = molecular target: T1, CYP2J2-R117E (Homo sapiens, UniProt P51589, R117E); test: biochemical
T1 sequence (P51589 1-502 R117E): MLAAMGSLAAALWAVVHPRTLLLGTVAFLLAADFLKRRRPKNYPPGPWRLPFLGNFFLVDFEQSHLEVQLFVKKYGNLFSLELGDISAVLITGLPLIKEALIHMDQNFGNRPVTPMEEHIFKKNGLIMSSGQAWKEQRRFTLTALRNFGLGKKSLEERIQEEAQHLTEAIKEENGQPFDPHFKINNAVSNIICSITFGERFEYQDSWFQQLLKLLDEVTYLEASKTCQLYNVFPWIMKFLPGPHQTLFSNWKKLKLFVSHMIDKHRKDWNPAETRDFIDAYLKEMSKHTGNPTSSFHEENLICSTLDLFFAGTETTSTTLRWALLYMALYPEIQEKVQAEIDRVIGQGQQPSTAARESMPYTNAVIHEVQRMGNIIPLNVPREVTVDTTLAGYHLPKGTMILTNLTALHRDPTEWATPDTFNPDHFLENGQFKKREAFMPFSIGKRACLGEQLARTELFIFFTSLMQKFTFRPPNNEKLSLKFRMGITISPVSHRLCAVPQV
Description: (§1) At t0 and regularly thereafter, aliquots (200 µL) were taken and the reaction was terminated by treatment with 100 µL of a cold CH3CN/CH3COOH (10:1) mixture. Proteins were precipitated by centrifugation for 10 min at 10,000 rpm, and the supernatant was analyzed by reverse-phase HPLC. […] The kinetic parameters correspond to initial rates that were measured under linear conditions for proteins and time.

wild-type CYP2J2 = molecular target: T2, wild-type CYP2J2 (Homo sapiens, UniProt P51589); conditions: cited from earlier work
T2 sequence (P51589 1-502): T1 sequence (P51589 1-502 R117E) with E117R

CYP2J2-R117K = molecular target: T3, CYP2J2-R117K (Homo sapiens, UniProt P51589, R117K); test: biochemical
T3 sequence (P51589 1-502 R117K): T1 sequence (P51589 1-502 R117E) with E117K
Description: as §1

Compound	Fe-C distance, α carbon of R group (wild type CYP2J2)	Fe-C distance, β carbon of R group (wild type CYP2J2)	Fe-C distance, γ carbon of R group (wild type CYP2J2)	IC50 (CYP2J2-R117E)	IC50 (wild-type CYP2J2)	IC50 (CYP2J2-R117K)
CCCc1ccc(C(=O)CCCN2CCC(C(O)(c3ccccc3)c3ccccc3)CC2)cc1 [Compound 2]	4.9 Å	3.8 Å	4.6 Å	1 µM and 0.5 µM	0.4 ± 0.1 µM	1.1 ± 0.2 µM
CC(C)(C)c1ccc(CCCCN2CCC(C(O)(c3ccccc3)c3ccccc3)CC2)cc1 [Compound 3]	–	–	–	2.1 ± 0.4 µM	3.6 ± 0.7 µM	8.6 ± 0.2 µM
CCCc1ccc(CCCCN2CCC(C(O)(c3ccccc3)c3ccccc3)CC2)cc1 [Compound 4]	–	–	–	2.9 ± 0.2 µM	4.5 ± 0.9 µM	13.2 ± 0.1 µM
CC(C)(C)c1ccc(C(=O)CCCN2CCC(C(O)(c3ccccc3)c3ccccc3)CC2)cc1 [Terfenadone 1, Terfenadone]	–	–	–	0.5 µM and 1 µM	0.7 ± 0.1 µM	~1 µM
